Measured values published in patent US20230128304A1, “BENZIMIDAZOLE COMPOUND FOR THE TREATMENT OF METABOLIC DISORDERS” (ACHÉ LABORATÓRIOS FARMACÊUTICOS S.A., priority 2020, published 2023).

How the values were obtained:
MT1 receptor = MT1 receptor (Homo sapiens, UniProt P48039); test: cell-based; conditions: read-out: MT1 agonism I.A. (intrinsic activity)
[1] = system: SD rats maintained on a high fat diet (HFD); test: Liver triglycerides and glycogen in HFD model; format: in vivo, Sprague Dawley (SD) rats; conditions: 5 mg/kg
Protocol: The parameters were assessed following a chronic oral treatment with compound I at 10 and 30 mg/kg, dapagliflozin at 5 mg/kg, or vehicle to animals receiving HFD. Vehicle was also administered to animals receiving normal chow. The liver triglycerides were quantified using Cobas C111 clinical analyzer TRIGL 04657594 190. Glycogen quantification in liver samples was performed using commercial kits (Thermo BioVision, Glycogen Assay Kit, K646-100). Data is shown as means±SEM (A-D) or raw data including mean±SEM (E-H), n=9-10. The statistical analysis of liver triglycerides (A-B) and glycogen (C-D) was performed by general linear model of log transformed data (triglycerides only) with treatment and cohort as factors and termination order and BW on day 1 as covariates. Treatment groups were compared with HFD Vehicle by separate Williams' tests (compound I) or multiple t tests (dapagliflozin) and statistically significant differences are denoted by * (p<0.05), ** (p<0.01) and *** (p<0.001). […]
As only the benzimidazole derivative of formula I according to the present invention, but not the comparative benzimidazole compound II, impacted BW gain, liver weight, plasma glucose levels and HOMA-IR in the HFD model, specific effects of compound I in the liver of the animals were evaluated in comparison with dapagliflozin and control groups. […]

[2] = system: SD rats maintained on a high fat diet (HFD); test: Weight of selected tissues in HFD model; format: in vivo, Sprague Dawley (SD) rats
Protocol: In the HFD model, animals were initially maintained on a HFD for 4 weeks to induce a significant body weight (BW) gain before treatment was initiated. […] Two vehicle-treated control groups, fed either normal chow (Chow Vehicle) or HFD (HFD Vehicle), were also included. The effects on body composition and on the weight of selected tissues (brown fat pad, epididymal fat pad, liver or gastrocnemius muscle) were assessed after the study was terminated (days 65/66). […] Body composition was determined using FoodScan™ near-infrared analyzer analysis, which assessed water, protein and fat content and the final carcass weight (Table 4).

[3] = system: SD rats maintained on a high fat diet (HFD); test: Body composition (FoodScan near-infrared analyzer) in HFD model; format: in vivo, Sprague Dawley (SD) rats; conditions: for Fat / Final carcass weight / Protein / Water: adjusted means ± SEM; for Body composition parameters (water, protein, fat content, final carcass weight) against HFD Vehicle: 10 and 30 mg/kg
Protocol: (§1) In the HFD model, animals were initially maintained on a HFD for 4 weeks to induce a significant body weight (BW) gain before treatment was initiated. […] Two vehicle-treated control groups, fed either normal chow (Chow Vehicle) or HFD (HFD Vehicle), were also included.
The effects on body composition and on the weight of selected tissues (brown fat pad, epididymal fat pad, liver or gastrocnemius muscle) were assessed after the study was terminated (days 65/66). The weights of tissues were analyzed in two ways: i) BW on day 1 was used as a covariate to correct for differences in the BW at the start of the study or ii) the terminal BW (days 65/66) was used as a covariate to correct for changes due to weight loss (Table 3). […] Body composition was determined using FoodScan™ near-infrared analyzer analysis, which assessed water, protein and fat content and the final carcass weight (Table 4).

[4] = system: SD rats maintained on a high fat diet (HFD); test: Plasma glucose, insulin and HOMA-IR in HFD model; format: in vivo, Sprague Dawley (SD) rats
Protocol: Vehicle was administered to animals fed normal chow or HFD. The parameters were assessed on day 51. […] In the HFD model, animals were initially maintained on a HFD for 4 weeks to induce a significant body weight (BW) gain before treatment was initiated. […] Two vehicle-treated control groups, fed either normal chow (Chow Vehicle) or HFD (HFD Vehicle), were also included.

[5] = system: SD rats maintained on a high fat diet (HFD); test: Liver histopathology (NAFLD activity score) in HFD model; format: in vivo, Sprague Dawley (SD) rats
Protocol: The parameters were assessed following a chronic oral treatment with compound I at 10 and 30 mg/kg, dapagliflozin at 5 mg/kg, or vehicle to animals receiving HFD. Vehicle was also administered to animals receiving normal chow. The liver triglycerides were quantified using Cobas C111 clinical analyzer TRIGL 04657594 190. Glycogen quantification in liver samples was performed using commercial kits (Thermo BioVision, Glycogen Assay Kit, K646-100). Data is shown as means±SEM (A-D) or raw data including mean±SEM (E-H), n=9-10. The statistical analysis of liver triglycerides (A-B) and glycogen (C-D) was performed by general linear model of log transformed data (triglycerides only) with treatment and cohort as factors and termination order and BW on day 1 as covariates. Treatment groups were compared with HFD Vehicle by separate Williams' tests (compound I) or multiple t tests (dapagliflozin) and statistically significant differences are denoted by * (p<0.05), ** (p<0.01) and *** (p<0.001). Comparisons against Chow Vehicle were performed by multiple t tests (HFD Vehicle and dapagliflozin groups) or Dunnett's test (compound I) and statistically significant differences are denoted by † (p<0.05), †† (p<0.01) and ††† (p<0.001). Analysis of liver histopathology data (E-H) was done by exact Wilcoxon rank sum test. Statistical differences are denoted by * (p<0.05) in comparison with HFD Vehicle and by † (p<0.05), †† (p<0.01) and ††† (p<0.001) when compared with Chow Vehicle.
as §1
Liver was also assessed for NAFLD by histopathological analysis (FIGS. 3E-H). Samples were sectioned, stained and scored following a method previously described (Kleiner D E et al. (2005). Design and validation of a histological scoring system for nonalcoholic fatty liver disease. Hepatology. 41(6):1313-21; Nishida T et al. (2013). Spontaneous onset of nonalcoholic steatohepatitis and hepatocellular carcinoma in a mouse model of metabolic syndrome. Lab Invest. 93(2):230-41). The parameters analyzed were: steatosis (0-3), lobular inflammation (0-3) and hepatocellular ballooning (0-2). The total “NAFLD activity score” (NAS) score was calculated as the sum of all parameters (0-8). The liver of Chow Vehicle animals had no pathology scores (zero) for steatosis, lobular inflammation, hepatocellular ballooning and no score for total NAS.

[6] = system: SD rats maintained on a high fat diet (HFD); test: Body weight and food intake in HFD diet-induced obesity model; format: in vivo, Sprague Dawley (SD) rats; conditions: for Daily food intake compared with HFD Vehicle: compound II apart from isolated changes
Protocol: The benzimidazole compound of formula I, the comparative compound of formula II, and dapagliflozin were administered to animals fed HFD. Vehicle was administered to animals fed normal chow or HFD. Data is shown as adjusted means—SEM of n=9-10 animals (BW and BW gain) or n=5 cages (FI and average daily FI) per group. Data was analyzed by ANCOVA with BW on day 1 (A and C) or average FI during the baseline period (B and D) as covariate, excluding the Chow Vehicle group. Treatment groups were compared with HFD Vehicle by separate Williams' tests (compounds I or II) or multiple t tests (dapagliflozin) and considered statistically significant if p<0.05. Statistical significance is denoted as “a”, “b”, “c”, “d” and “e” for HFD groups treated respectively with dapagliflozin, compound II at 10 mg/kg, compound II at 30 mg/kg, compound I at 10 mg/kg and compound I at 30 mg/kg. # (p=0.051) and & (p=0.098) mean trends toward significance in comparisons with HFD Vehicle.
J Endocrinol. 234(3):255-267; Devenny J J et al. (2012). Weight loss induced by chronic dapagliflozin treatment is attenuated by compensatory hyperphagia in diet-induced obese (DIO) rats. Obesity. 20: 1645-1652.).
as §1

[7] = 5 mg/kg, data adjusted for BW on day 1, mean ± SEM, in g (unit assumed)
[8] = 5 mg/kg, data adjusted for BW on day 65/66, mean ± SEM, in g (unit assumed)
[9] = 5 mg/kg p.o., day 51 after 4-hour fast, p<0.001
[10] = 10 mg/kg, data adjusted for BW on day 1, mean ± SEM, in g (unit assumed)
[11] = 10 mg/kg, data adjusted for BW on day 65/66, mean ± SEM, in g (unit assumed)
[12] = 30 mg/kg, data adjusted for BW on day 1, mean ± SEM, in g (unit assumed)
[13] = 30 mg/kg, data adjusted for BW on day 65/66, mean ± SEM, in g (unit assumed)

MT1 receptor, sequence (P48039 whole entry): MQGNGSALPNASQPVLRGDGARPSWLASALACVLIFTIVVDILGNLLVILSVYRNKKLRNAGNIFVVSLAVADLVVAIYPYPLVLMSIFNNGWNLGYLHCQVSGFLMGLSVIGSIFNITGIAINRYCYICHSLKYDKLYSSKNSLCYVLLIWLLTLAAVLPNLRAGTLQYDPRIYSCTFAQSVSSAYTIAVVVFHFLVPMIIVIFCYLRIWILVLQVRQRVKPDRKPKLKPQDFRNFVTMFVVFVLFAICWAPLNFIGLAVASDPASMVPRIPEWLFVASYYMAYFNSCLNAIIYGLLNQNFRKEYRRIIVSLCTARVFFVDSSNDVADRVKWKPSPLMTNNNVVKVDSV

Structure (SMILES): COc1ccc2[nH]cc(CCNC(C)=O)c2c1 [Melatonin, N-acetyl-5-methoxytryptamine]
- Emax (MT1 receptor): 100%

Structure (SMILES): CCOc1ccc(Cc2cc([C@@H]3O[C@H](CO)[C@@H](O)[C@H](O)[C@H]3O)ccc2Cl)cc1 [Dapagliflozin]
- Liver glycogen concentration compared to HFD Vehicle (in words) [1]: No effect
- Liver glycogen content compared to HFD Vehicle (in words) [1]: No effect
- Brown adipose tissue weight [2, 7]: 0.679 ± 0.047
- Epididymal fat pads weight [2, 7]: 12.2 ± 0.7
- Gastrocnemius weight [2, 7]: 3.34 ± 0.09
- Liver weight [2, 7]: 20.9 ± 0.5
- Liver weight ([2]; 5 mg/kg, data adjusted for BW on day 65/66, mean ± SEM): 21.6 ± 0.3
- Brown adipose tissue weight [2, 8]: 0.697 ± 0.050
- Epididymal fat pads weight [2, 8]: 13.0 ± 0.7
- Gastrocnemius weight [2, 8]: 3.37 ± 0.09
- Liver weight change compared to HFD Vehicle ([2]; 5 mg/kg, data corrected for the terminal BW, p<0.01): +10.8%
- Fat ([3]; 5 mg/kg): 16.8 ± 1.3^ %
- Final carcass weight ([3]; 5 mg/kg): 564.5 ± 9.4 g
- Protein ([3]; 5 mg/kg): 20.6 ± 0.4%
- Water ([3]; 5 mg/kg): 58.9 ± 1.0^ %
- HOMA-IR change compared to HFD Vehicle [4, 9]: −66.7%
- Plasma glucose change compared to HFD Vehicle [4, 9]: −21.6%
- Plasma insulin change compared to HFD Vehicle [4, 9]: −56.7%
- Histopathology parameters (steatosis, lobular inflammation, hepatocellular ballooning, NAS) versus HFD Vehicle ([5]; 5 mg/kg): no effect

Structure (SMILES): CCOc1nc2cc(Cl)c(OC)cc2n1CCCNC(C)=O [Compound of formula II, N-[3-(5-Chloro-2-ethoxy-6-methoxy-benzoimidazol-1-yl)-propyl]-acetamide]
- Daily BW gain ([6]; 10 and 30 mg/kg): no significant effects
- Daily food intake compared with HFD Vehicle ([6]; 10 and 30 mg/kg): did not affect
- Fat ([3]; 10 mg/kg): 20.8 ± 2.3 %
- Final carcass weight ([3]; 10 mg/kg): 587.6 ± 6.3 g
- Protein ([3]; 10 mg/kg): 19.2 ± 0.6 %
- Water ([3]; 10 mg/kg): 56.0 ± 1.8 %
- Fat ([3]; 30 mg/kg): 17.9 ± 2.3 %
- Final carcass weight ([3]; 30 mg/kg): 593.3 ± 11.4 g
- Protein ([3]; 30 mg/kg): 19.8 ± 0.5%
- Water ([3]; 30 mg/kg): 58.4 ± 1.9^ %
- Body composition parameters (water, protein, fat content, final carcass weight) against HFD Vehicle [3]: No effect
- HOMA-IR compared to HFD Vehicle (in words) ([4]; 10 and 30 mg/kg, day 51): did not alter
- Plasma glucose compared to HFD Vehicle (in words) ([4]; 10 and 30 mg/kg, day 51): did not alter
- Plasma insulin compared to HFD Vehicle (in words) ([4]; 10 and 30 mg/kg, day 51): did not alter

Structure (SMILES): COc1cc2c(cc1Cl)nc(OC)n2CCNC(C)=O [Compound of formula I, N-[2-(5-Chloro-2,6-dimethoxy-benzoimidazol-1-yl)-ethyl]-acetamide]
- Body weight (BW) compared with HFD Vehicle ([6]; 10 and 30 mg/kg p.o., days 13 to 32, p<0.05): significantly reduced body weight (BW)
- BW gain from day 1 to 57 compared with HFD Vehicle ([6]; 10 and 30 mg/kg p.o., p=0.098): trend towards reduced BW gain
- Daily food intake compared with HFD Vehicle ([6]; 10 and 30 mg/kg): did not affect
- Liver weight ([2]; 10 mg/kg, data adjusted for BW on day 1, mean ± SEM): 17.7 ± 0.8
- Brown adipose tissue weight [2, 10]: 0.700 ± 0.091
- Epididymal fat pads weight [2, 10]: 13.1 ± 1.5
- Gastrocnemius weight [2, 10]: 3.30 ± 0.14
- Brown adipose tissue weight [2, 11]: 0.719 ± 0.084
- Epididymal fat pads weight [2, 11]: 13.9 ± 1.1
- Gastrocnemius weight [2, 11]: 3.32 ± 0.15
- Liver weight [2, 11]: 18.5 ± 0.5
- Liver weight ([2]; 30 mg/kg, data adjusted for BW on day 1, mean ± SEM): 18.6 ± 0.9
- Brown adipose tissue weight [2, 12]: 0.801 ± 0.066
- Epididymal fat pads weight [2, 12]: 13.9 ± 1.0
- Gastrocnemius weight [2, 12]: 3.35 ± 0.10
- Brown adipose tissue weight [2, 13]: 0.808 ± 0.062
- Epididymal fat pads weight [2, 13]: 14.2 ± 1.2
- Gastrocnemius weight [2, 13]: 3.36 ± 0.10
- Liver weight [2, 13]: 18.9 ± 0.5
- Liver weight compared to HFD Vehicle (in words) ([2]; both groups (10 and 30 mg/kg), corrected by the initial BW, p=0.12): trend toward liver weight reduction
- Fat ([3]; 10 mg/kg): 20.5 ± 1.5 %
- Final carcass weight ([3]; 10 mg/kg): 561.7 ± 13.0^ g
- Protein ([3]; 10 mg/kg): 19.7 ± 0.4%
- Water ([3]; 10 mg/kg): 56.1 ± 1.2 %
- Fat ([3]; 30 mg/kg): 20.0 ± 1.7 %
- Final carcass weight ([3]; 30 mg/kg): 584.0 ± 13.6^ g
- Protein ([3]; 30 mg/kg): 19.6 ± 0.5 %
- Water ([3]; 30 mg/kg): 56.5 ± 1.4 %
- Body composition parameters (water, protein, fat content, final carcass weight) against HFD Vehicle [3]: No effect
- Steatosis score change compared to the HFD group ([5]; 30 mg/kg p.o., p<0.05): −57%
- Total NAS value versus HFD Vehicle ([5]; 30 mg/kg, p=0.126): trend toward significance
- Lobular inflammation score ([5]; 30 mg/kg, no longer significantly different from the Chow Vehicle control): reduced
